Laboratory results taken from ChEMBL document CHEMBL5724914, “Linking interpersonal differences in gut microbiota composition and drug biotransformation activity” (2024).

Legend:
[1] = (§1) The drug is tested on Z-030 corresponding to mouse gut metagenome with ENA study accession number: PRJEB37062 and ENA sample accession number: ERS12561829 for biotransformation under anaerobic condition. The drug concentrations were measured over 9 timepoints collected between 0 and 24 hours of incubation by liquid-chromatography-coupled mass spectrometry (LC–MS); settings: 2 µM
[2] = as §1, with “Z-029” for “Z-030”, “rat” for “mouse”, “ERS12561828” for “ERS12561829”; settings: 2 µM
[3] = as §1, with “Z-027” for “Z-030”, “to” for “to mouse gut”, “ERS12561826” for “ERS12561829”; settings: 2 µM
[4] = as §1, with “Z-018” for “Z-030”, “pig” for “mouse”, “ERS12561817” for “ERS12561829”; settings: 2 µM
[5] = as §1, with “Z-014” for “Z-030”, “rat” for “mouse”, “ERS12561814” for “ERS12561829”; settings: 2 µM
[6] = as §1, with “Z-009” for “Z-030”, “pig” for “mouse”, “ERS12561809” for “ERS12561829”; settings: 2 µM
[7] = as §1, with “Z-008” for “Z-030”, “to” for “to mouse gut”, “ERS12561808” for “ERS12561829”; settings: 2 µM
[8] = as §1, with “Z-007” for “Z-030”, “rat” for “mouse”, “ERS12561807” for “ERS12561829”; settings: 2 µM
[9] = as §1, with “Z-003” for “Z-030”, “pig” for “mouse”, “ERS12561803” for “ERS12561829”; settings: 2 µM
[10] = as §1, with “Z-001” for “Z-030”, “ERS12561801” for “ERS12561829”; settings: 2 µM
[11] = as §1, with “WLS-370” for “Z-030”, “human” for “mouse”, “ERS12561793” for “ERS12561829”; settings: 2 µM
[12] = as §1, with “WLS-098” for “Z-030”, “human” for “mouse”, “ERS12561754” for “ERS12561829”; settings: 2 µM
[13] = as §1, with “WLS-082” for “Z-030”, “human” for “mouse”, “ERS12561751” for “ERS12561829”; settings: 2 µM
[14] = as §1, with “WLS-073” for “Z-030”, “human” for “mouse”, “ERS12561749” for “ERS12561829”; settings: 2 µM
[15] = as §1, with “WLS-069” for “Z-030”, “human” for “mouse”, “ERS12561748” for “ERS12561829”; settings: 2 µM
[16] = human gut metagenome, 24 h, 2 µM
[17] = human gut metagenome, 24 h, 2 µM; remark: listed apart in the source
[18] = human gut metagenome, 24 h, 2 µM; remark: listed apart in the source
[19] = human gut metagenome, 24 h, 2 µM; remark: listed apart in the source
[20] = human gut metagenome, 24 h, 2 µM; remark: listed apart in the source
Also: call rule not given here.

Structure (SMILES)	Bacterial Biotransformation [1]	Bacterial Biotransformation [2]	Bacterial Biotransformation [3]	Bacterial Biotransformation [4]	Bacterial Biotransformation [5]	Bacterial Biotransformation [6]	Bacterial Biotransformation [7]	Bacterial Biotransformation [8]	Bacterial Biotransformation [9]	Bacterial Biotransformation [10]	Bacterial Biotransformation [11]	Bacterial Biotransformation [12]	Bacterial Biotransformation [13]	Bacterial Biotransformation [14]	Bacterial Biotransformation [15]	Bacterial Biotransformation [16]	Bacterial Biotransformation [17]	Bacterial Biotransformation [18]	Bacterial Biotransformation [19]	Bacterial Biotransformation [20]
OC(c1cc(C(F)(F)F)nc2c(C(F)(F)F)cccc12)C1CCCCN1 (stereo not given) [MEFLOQUINE]	Compound NOT metabolized	Compound metabolized	Compound NOT metabolized	Compound metabolized	Compound NOT metabolized	Compound metabolized	Compound NOT metabolized	Compound NOT metabolized	Compound metabolized	Compound NOT metabolized	Compound metabolized	Compound NOT metabolized	Compound metabolized	Compound metabolized	Compound metabolized	Compound NOT metabolized	Compound metabolized	Compound metabolized	Compound metabolized	Compound metabolized
CN1CCC[C@@H]1CCO[C@](C)(c1ccccc1)c1ccc(Cl)cc1.O=C(O)/C=C/C(=O)O [CLEMASTINE FUMARATE]	Compound NOT metabolized	Compound NOT metabolized	Compound NOT metabolized	Compound NOT metabolized	Compound NOT metabolized	Compound NOT metabolized	Compound NOT metabolized	Compound NOT metabolized	Compound NOT metabolized	Compound NOT metabolized	Compound metabolized	Compound metabolized	Compound NOT metabolized	Compound NOT metabolized	Compound metabolized	Compound NOT metabolized	Compound metabolized	Compound metabolized	Compound NOT metabolized	Compound metabolized
CC(=O)O[C@H]1C(=O)[C@@]2(C)[C@H]([C@H](OC(=O)c3ccccc3)[C@]3(O)C[C@H](OC(=O)[C@H](O)[C@@H](NC(=O)c4ccccc4)c4ccccc4)C(C)=C1C3(C)C)[C@]1(OC(C)=O)CO[C@@H]1C[C@@H]2O [PACLITAXEL]	Compound NOT metabolized	Compound NOT metabolized	Compound NOT metabolized	Compound metabolized	Compound metabolized	Compound metabolized	Compound NOT metabolized	Compound NOT metabolized	Compound metabolized	Compound NOT metabolized	Compound NOT metabolized	Compound NOT metabolized	Compound metabolized	Compound metabolized	Compound metabolized	Compound NOT metabolized	Compound NOT metabolized	Compound NOT metabolized	Compound NOT metabolized	Compound NOT metabolized
COc1ccccc1OCCNCC(O)COc1cccc2[nH]c3ccccc3c12 (stereo not given) [CARVEDILOL]	Compound NOT metabolized	Compound NOT metabolized	Compound NOT metabolized	Compound NOT metabolized	Compound NOT metabolized	Compound NOT metabolized	Compound NOT metabolized	Compound NOT metabolized	Compound NOT metabolized	Compound NOT metabolized	Compound NOT metabolized	Compound metabolized	Compound metabolized	Compound metabolized	Compound metabolized	Compound NOT metabolized	Compound NOT metabolized	Compound metabolized	Compound metabolized	Compound metabolized
c1ccc2[nH]c(-c3cscn3)nc2c1 [THIABENDAZOLE]	Compound NOT metabolized	Compound NOT metabolized	Compound NOT metabolized	Compound NOT metabolized	Compound NOT metabolized	Compound NOT metabolized	Compound NOT metabolized	Compound NOT metabolized	Compound NOT metabolized	Compound NOT metabolized	Compound NOT metabolized	Compound metabolized	Compound NOT metabolized	Compound NOT metabolized	Compound NOT metabolized	Compound NOT metabolized	Compound NOT metabolized	Compound NOT metabolized	Compound NOT metabolized	Compound metabolized
C[N+]12CCC(CC1)C(OC(=O)C(O)(c1ccccc1)c1ccccc1)C2.[Br-] (stereo not given) [CLIDINIUM BROMIDE]	Compound NOT metabolized	Compound NOT metabolized	Compound NOT metabolized	Compound metabolized	Compound NOT metabolized	Compound metabolized	Compound NOT metabolized	Compound NOT metabolized	Compound metabolized	Compound metabolized	Compound metabolized	Compound NOT metabolized	Compound NOT metabolized	Compound NOT metabolized	Compound NOT metabolized	Compound NOT metabolized	Compound metabolized	Compound metabolized	Compound NOT metabolized	Compound metabolized
O=C1CC2(CCCC2)CC(=O)N1CCCCN1CCN(c2ncccn2)CC1 [BUSPIRONE]	Compound NOT metabolized	Compound NOT metabolized	Compound NOT metabolized	Compound NOT metabolized	Compound NOT metabolized	Compound NOT metabolized	Compound NOT metabolized	Compound NOT metabolized	Compound metabolized	Compound NOT metabolized	Compound NOT metabolized	Compound metabolized	Compound NOT metabolized	Compound NOT metabolized	Compound metabolized	Compound NOT metabolized	Compound metabolized	Compound metabolized	Compound metabolized	Compound metabolized
COC(=O)C(c1ccccc1)C1CCCCN1 (stereo not given) [METHYLPHENIDATE]	Compound NOT metabolized	Compound NOT metabolized	Compound NOT metabolized	Compound metabolized	Compound NOT metabolized	Compound metabolized	Compound NOT metabolized	Compound NOT metabolized	Compound metabolized	Compound metabolized	Compound NOT metabolized	Compound NOT metabolized	Compound NOT metabolized	Compound NOT metabolized	Compound NOT metabolized	Compound NOT metabolized	Compound NOT metabolized	Compound metabolized	Compound metabolized	Compound metabolized
